Measurements from patent US12121514B2, “Nonselective metabotropic glutamate receptor activators for treatment of attention deficit disorder and 22Q syndrome” (THE CHILDREN'S HOSPITAL OF PHILADELPHIA, priority 2015, dated 2024).
Where “and” joins values, the source holds several entries; their conditions need not be identical. Equal entries are not always repeated.

System: adolescent subjects with ADHD and at least one genetic alteration in an mGluR network gene
Experiment: Vanderbilt ADHD score (items 1-18, parent), Phase Ib trial of NFC-1
Format: in vivo, human
Excerpt: The Vanderbilt Rating Scale is a measure that can be completed by parents or teachers (separate forms, see Vanderbilt Rating Scale Parents and Vanderbilt Rating Scale Teachers). The Vanderbilt scale rates the child's behavior on items such as attention, finishing tasks, hyperactivity, difficulty waiting, and measures of conduct or oppositional defiant disorders—as well as measures of overall school performance and interactions with others. The first 18 items on the Vanderbilt scale correspond to those of the ADHD Rating Scale IV above while the Vanderbilt scale also includes items 19-47 related to other mental disorders including ODD (items 19-26), conduct disorder (items 27-40), anxiety (items 41, 42, and 47), and depression (items 43-46). Each of the behavioral assessment items on the Vanderbilt Scale are rated 0, 1, 2, or 3, with 0=never occurring; 1=occasionally, 2=often, and 3=very often. Thus, the ADHD Rating Scale IV, ADHD Rating Scale V, and items 1-18 of the Vanderbilt Rating Scale are equivalent scales, while additional items on the Vanderbilt Scale assess co-morbid phenotypes and disorders.
Each of the items are rated on a scale of 0, 1, 2, or 3, with 0=never; 1=occasionally, 2=often, and 3=very often. A total score of 0 to 54 is computed based on the answers to the 18 questions.
As used herein an “ADHD rating scale score,” “ADHD score” or “Vanderbilt ADHD score” are used interchangeably to refer to the computed score of the 18 items of the ADHD Rating Scale IV or V or the first 18 items of the Vanderbilt Rating Scale in any of their associated versions, e.g., for parent, teacher, or clinician to complete, and for a pediatric subject or adult subject. Clinical trials may assess the impact of drug or placebo on the ADHD score or Vanderbilt ADHD score (i.e. the score of 0 to 54 based on the first 18 items in the ADHD or Vanderbilt rating scale). In some cases, results of a clinical trial population may be analyzed by comparing the average score or a percentage change in score over time of administration of drug.
An open-label Phase Ib clinical trial was initiated to investigate the safety, pharmacokinetics and efficacy of NFC-1 (fasoracetam monohydrate) in adolescent subjects between the ages of 12 and 17 previously diagnosed with ADHD who also had at least one genetic alteration in an mGluR network gene.
Dose-escalation phase of the trial followed the PK and initial safety assessment and ran over a 5-week period. During week 1, all subjects were administered placebo capsules twice daily. After one week of placebo treatment, patients were started on 50 mg bid NFC-1 for 1 week. If safety and responsiveness data from prior dose level of fasoracetam indicated it was appropriate, subjects were then escalated to the next higher dose (100, 200, or 400 mg). […] Of the 30 trial subjects, 3 received a maximum dose of 100 mg, 9 received a maximum dose of 200 mg, and the remaining 18 received a maximum dose of 400 mg.
All efficacy assessments, except actigraphy, were made at study enrollment (“enrollment baseline”) and again, including actigraphy, once-per-week for the placebo week (“week 1” or “placebo baseline”) and at each of the 4 weeks of NFC-1 treatment. These efficacy measures include items 1-18 of the Vanderbilt scale assessing symptoms related to inattentiveness and hyperactivity-impulsiveness as well as additional questions 19-47 of the Vanderbilt scale assessing other behavioral symptoms (conducted by parent), actigraphy for quantitative measurement of activity, Quotient® ADHD test for objective measurement of micro-motion and shifts in attention state, PERMP-Math test, and CGI-I and CGI-S for assessment of global functioning. […]

[1] = relative to placebo (week 1) baseline, Tier 3, Week 3, up to 100 mg bid
[2] = relative to placebo (week 1) baseline, Tier 3, Week 4, 200 mg bid
[3] = relative to placebo (week 1) baseline, Tier 3, Week 4, up to 200 mg bid
[4] = relative to placebo (week 1) baseline, Tier 3, Week 5, 400 mg bid
[5] = relative to placebo (week 1) baseline, Tier 3, Week 5, up to 400 mg bid
[6] = relative to pre-study (enrollment) baseline, Overall, Week 2, 50 mg bid
[7] = relative to pre-study (enrollment) baseline, Overall, Week 3, 100 mg bid
[8] = relative to pre-study (enrollment) baseline, Overall, Week 3, up to 100 mg bid
[9] = relative to pre-study (enrollment) baseline, Overall, Week 4, 200 mg bid
[10] = relative to pre-study (enrollment) baseline, Overall, Week 4, up to 200 mg bid
[11] = relative to pre-study (enrollment) baseline, Overall, Week 5, 400 mg bid
[12] = relative to pre-study (enrollment) baseline, Tier 1, Week 2, 50 mg bid
[13] = relative to pre-study (enrollment) baseline, Tier 1, Week 3, 100 mg bid
[14] = relative to pre-study (enrollment) baseline, Tier 1, Week 3, up to 100 mg bid
[15] = relative to pre-study (enrollment) baseline, Tier 1, Week 4, 200 mg bid

O=C1CC[C@H](C(=O)N2CCCCC2)N1 [NFC-1, fasoracetam monohydrate]
Percent of subjects demonstrating robust improvement in Vanderbilt ADHD score (at least 40% decrease) [1]: 0% | Percent of subjects with improvement in Vanderbilt ADHD score (at least 25% decrease) [1]: 20% | Percent of subjects completing the dose escalation to 400 mg bid that show improvement in Vanderbilt ADHD scores (at least 25% decrease) [2]: 0% | Percent of subjects completing the dose escalation to 400 mg bid that show robust improvement in Vanderbilt ADHD scores (at least 40% decrease) [2]: 0% | Percent of subjects demonstrating robust improvement in Vanderbilt ADHD score (at least 40% decrease) [3]: 0% | Percent of subjects with improvement in Vanderbilt ADHD score (at least 25% decrease) [3]: 0% | Percent of subjects completing the dose escalation to 400 mg bid that show improvement in Vanderbilt ADHD scores (at least 25% decrease) [4]: 0% | Percent of subjects completing the dose escalation to 400 mg bid that show robust improvement in Vanderbilt ADHD scores (at least 40% decrease) [4]: 0% | Percent of subjects demonstrating robust improvement in Vanderbilt ADHD score (at least 40% decrease) [5]: 0% | Percent of subjects with improvement in Vanderbilt ADHD score (at least 25% decrease) [5]: 0% | Percent of subjects completing the dose escalation to 400 mg bid that show improvement in Vanderbilt ADHD scores (at least 25% decrease) [6]: 41% | Percent of subjects completing the dose escalation to 400 mg bid that show robust improvement in Vanderbilt ADHD scores (at least 40% decrease) [6]: 35% | Percent of subjects demonstrating robust improvement in Vanderbilt ADHD score (at least 40% decrease) [6]: 32% | Percent of subjects with improvement in Vanderbilt ADHD score (at least 25% decrease) [6]: 43% | Percent of subjects completing the dose escalation to 400 mg bid that show improvement in Vanderbilt ADHD scores (at least 25% decrease) [7]: 53% | Percent of subjects completing the dose escalation to 400 mg bid that show robust improvement in Vanderbilt ADHD scores (at least 40% decrease) [7]: 24% | Percent of subjects demonstrating robust improvement in Vanderbilt ADHD score (at least 40% decrease) [8]: 36% | Percent of subjects with improvement in Vanderbilt ADHD score (at least 25% decrease) [8]: 54% | Percent of subjects completing the dose escalation to 400 mg bid that show improvement in Vanderbilt ADHD scores (at least 25% decrease) [9]: 53% | Percent of subjects completing the dose escalation to 400 mg bid that show robust improvement in Vanderbilt ADHD scores (at least 40% decrease) [9]: 35% | Percent of subjects demonstrating robust improvement in Vanderbilt ADHD score (at least 40% decrease) [10]: 43% | Percent of subjects with improvement in Vanderbilt ADHD score (at least 25% decrease) [10]: 68% | Percent of subjects completing the dose escalation to 400 mg bid that show improvement in Vanderbilt ADHD scores (at least 25% decrease) [11]: 82% | Percent of subjects completing the dose escalation to 400 mg bid that show robust improvement in Vanderbilt ADHD scores (at least 40% decrease) [11]: 47% | Percent of subjects with improvement in Vanderbilt ADHD score (at least 25% decrease) (relative to pre-study (enrollment) baseline, Overall, Week 5, up to 400 mg bid, monohydrate): 78% and 75-80% | Percent of subjects completing the dose escalation to 400 mg bid that show improvement in Vanderbilt ADHD scores (at least 25% decrease) [12]: 56% | Percent of subjects completing the dose escalation to 400 mg bid that show robust improvement in Vanderbilt ADHD scores (at least 40% decrease) [12]: 44% | Percent of subjects demonstrating robust improvement in Vanderbilt ADHD score (at least 40% decrease) [12]: 35% | Percent of subjects with improvement in Vanderbilt ADHD score (at least 25% decrease) [12]: 47% | Percent of subjects completing the dose escalation to 400 mg bid that show improvement in Vanderbilt ADHD scores (at least 25% decrease) [13]: 89% | Percent of subjects completing the dose escalation to 400 mg bid that show robust improvement in Vanderbilt ADHD scores (at least 40% decrease) [13]: 44% | Percent of subjects demonstrating robust improvement in Vanderbilt ADHD score (at least 40% decrease) [14]: 50% | Percent of subjects with improvement in Vanderbilt ADHD score (at least 25% decrease) [14]: 75% | Percent of subjects completing the dose escalation to 400 mg bid that show improvement in Vanderbilt ADHD scores (at least 25% decrease) [15]: 89% | Percent of subjects completing the dose escalation to 400 mg bid that show robust improvement in Vanderbilt ADHD scores (at least 40% decrease) [15]: 56% | Percent of subjects demonstrating robust improvement in Vanderbilt ADHD score (at least 40% decrease) (relative to pre-study (enrollment) baseline, Tier 1, Week 4, up to 200 mg bid): 56%
